Measurements reported in patent US12036194B1, “Methods of administering solriamfetol to lactating women” (Axsome Malta Ltd., priority 2022, dated 2024).
Where “and” joins values, the source holds several entries; their conditions need not be identical. Identical values can stand only once. Counter-ions that a name gives are not always drawn.

How the values were obtained:
[1] = Phase 4 single-dose study: safety and tolerability (adverse events, vital signs, 12-lead ECG, C-SSRS); format: in vivo, human; conditions: for Subjects who discontinued due to AE / Subjects with Mild AE / Subjects with Moderate AE / Subjects with SAE / Subjects with an AE considered related to study drug / Subjects with an AE considered unrelated to study drug / Subjects with at least 1 AE: hydrochloride
Method: Pharmacokinetic analysis of breast milk obtained from both breasts (by pumping) was evaluated prior to dose administration and at intervals up to 72 hours postdose. Blood samples were also collected for plasma solriamfetol quantitation and PK analysis predose and at timepoints up to 72 hours postdose. Solriamfetol breast milk and plasma concentrations were measured using validated bioanalytical methods. Safety was assessed throughout the study by 12-lead ECG, vital sign measurements, the Columbia-Suicide Severity Rating Scale (C-SSRS), and the incidence of adverse events (AE).
Vital signs (blood pressure, pulse rate, temperature, and respiratory rate) were measured with the subject in a seated or supine position and resting for at least 5 minutes prior to taking the measurement. The dominant arm was used for blood pressure and pulse rate measurements. On Day 1, vital signs were collected at predose, and at approximately 2 (blood pressure and pulse) and 4 hours (blood pressure and pulse) postdose.
12-lead ECG was taken with the subject in a supine position and resting for at least 10 minutes prior to taking the measurement. On Day 1, ECGs were collected predose and at approximately 2 hours postdose.
Adverse events were monitored throughout the study by safety assessments, observations, and subject reporting, including the Safety FU telephone call 5-7 days (i.e., Days 9-11) after check-out from the study facility on Day 4, or ET.
The 12-lead ECGs were collected at Screening, Day −1 until Day 4. Single 12-lead ECG was obtained using an ECG machine that automatically calculated the heart rate and measured PR, QRS, QT, and corrected QT interval (QTc) intervals. Any abnormal safety assessments including ECG readings considered clinically significant in the medical and scientific judgment of the investigator were reported as an AE. The investigator had to review the ECG and document it in the source documents. Clinically significant abnormal ECG results reported during Screening were recorded as medical history and those reported after study drug were recorded as AEs.
Safety analyses were based on the Safety Population. The secondary endpoints for evaluating subject safety and tolerance were the incidence of reported AEs and the laboratory test results for all subjects.
Adverse events: Adverse events recorded in the electronic case report forms (eCRFs) were coded to SOC and PT using the Medical Dictionary for Regulatory Activities (MedDRA). Treatment-emergent adverse events (TEAEs) are defined as any event with onset date on or after the first dose of study drug or any ongoing event that worsened in severity after the date of the first dose of study drug or any event that was present at baseline but was subsequently considered drug-related by the investigator through the end of the study. The incidence of TEAEs were presented by severity, relationship to study drug, start and end date, seriousness, and outcome. The investigator assessed the severity and relatedness of each AE to study drug. Columbia-Suicide Severity Rating Scale (C-SSRS) data were summarized at scheduled visits and were listed. Other safety analyses were performed as appropriate.
12 Lead ECG: The number and percentage of subjects who had the following postbaseline clinically notable ECG interval abnormality was summarized: Ventricular rate >100 beats/min or ≤60 beats/min; PR interval ≥200 msec or ≤120 msec; QRS duration ≥100 msec or ≤80 msec; QT interval ≥440 msec or ≤350 msec; QTc Bazett and QTc Fredericia ≥470 msec or ≤330 msec; RR interval ≥1200 msec or ≤600 msec; and QTc Bazette and QTc Fredericia increase from study Baseline Value >30 msec. […]

[2] = rats; breast milk; cited from earlier work
[3] = Solriamfetol 150 mg single dose, N = 6
[4] = Solriamfetol 150 mg single dose, N = 6, listed as solriamfetol
[5] = any post-baseline visit/timepoint, 150 mg, N = 6

## NC(=O)OC[C@H](N)Cc1ccccc1 [Solriamfetol, (R)-2-amino-3-phenylpropyl carbamate (APC) hydrochloride]
[1]; 150 mg single dose, N = 6
  abnormal clinically significant ECG findings: No abnormal clinically significant ECG findings
  number of TEAEs of mild intensity (dizziness, headache, agitation; related to study drug): 3 TEAEs
  number of TEAEs of moderate intensity (headache; unrelated to study drug): 1 TEAE
  outcome of TEAEs: resolved
  subjects reporting suicidal ideation or event under Columbia-Classification Algorithm for Suicide Assessment: None
  subjects with abnormal, clinically significant laboratory findings: None
  total number of TEAEs reported: 4 TEAEs
[1]; [3]
  Subjects who discontinued due to AE considered related to study drug: 0 n (%)
  Subjects who discontinued due to AE considered unrelated to study drug: 0 n (%)
  Subjects with Fatal AE: 0 n (%)
  Subjects with Life-threatening AE: 0 n (%)
  Subjects with SAE considered related to study drug: 0 n (%)
  Subjects with SAE considered unrelated to study drug: 0 n (%)
  Subjects with Severe AE: 0 n (%)
  TEAE, PT Agitation: 1 (16.7) n (%)
  TEAE, PT Dizziness: 1 (16.7) n (%)
  TEAE, PT Headache: 2 (33.3) n (%)
  TEAE, SOC Nervous system disorders: 2 (33.3) n (%)
  TEAE, SOC Psychiatric disorders: 1 (16.7) n (%)
  Subjects who discontinued due to AE: 0 n (%)
  Subjects with Mild AE: 2 (33.3) n (%)
  Subjects with Moderate AE: 1 (16.7) n (%)
  Subjects with SAE: 0 n (%)
  Subjects with an AE considered related to study drug: 2 (33.3) n (%)
  Subjects with an AE considered unrelated to study drug: 1 (16.7) n (%)
  Subjects with at least 1 AE: 3 (50.0) n (%)
[1]; [4]
  Subjects who discontinued due to AE: None
  Subjects with Mild AE: 2 (33.3%) n (%)
  Subjects with Moderate AE: 1 (16.7%) n (%)
  Subjects with SAE: No SAEs
  Subjects with an AE considered related to study drug: 2 (33.3%) n (%)
  Subjects with an AE considered unrelated to study drug: 1 (16.7%) n (%)
  Subjects with at least 1 AE: 3 (50%) n (%) and 3 n (%)
[1]; [5]
  Clinically notable Body temperature: Change in body temperature > 1.8% from the subjects baseline temperature recordings: 1 (16.7) n (%)
  Clinically notable Diastolic blood pressure: Average diastolic blood pressure ≥ 95 mmHg or ≤ 60 mmHg: 2 (33.3) n (%)
  Clinically notable ECG mean heart rate: Ventricular rate ≥ 100 beats/min or ≤ 60 beats/min: 2 (33.3) n (%)
  Clinically notable PR interval, single beat: PR interval ≥ 200 msec or ≤ 120 msec: 2 (33.3) n (%)
  Clinically notable Pulse rate: Pulse change by > 20% from the study baseline value/recordings: 2 (33.3) n (%)
  Clinically notable QRS duration, single beat: QRS duration ≥ 100 msec or ≤ 80 msec: 4 (66.7) n (%)
  Clinically notable QT interval, single beat: QT interval ≥ 440 msec or ≤ 350 msec: 1 (16.7) n (%)
  Clinically notable Systolic blood pressure: Blood pressure change by > 20% from the study baseline value/recordings: 1 (16.7) n (%)
[1]; baseline to Day 1 2 hours and 4 hours, Day 2, Day 3, Day 4
  changes in vital sign parameters from baseline: no major changes
[1]; baseline to Day 1 predose and 2 hours, Day 2, Day 3, Day 4
  changes in ECG parameters from baseline: no major changes
[1]; single oral dose 150 mg, 6 healthy postpartum women
  overall safety and tolerability: safe and well tolerated
[2]
  solriamfetol milk concentrations versus plasma concentrations: higher than
